Earlier results on one molecule are cited in patent publication US20220400668A1, “MICROEMULSION COMPOSITIONS OF TOPRAMEZONE” (BASF SE, priority 2018, published 2022).

For the data set the following is noted: 25° C.

In the case of `Cc1c(C(=O)c2cnn(C)c2O)ccc(S(C)(=O)=O)c1C1=NOCC1` [topramezone, 4-[3-(4,5-dihydro-1,2-oxazol-3-yl)-2-methyl-4-methylsulfonylbenzoyl]-2-methyl-1H-pyrazol-3-one], the solubility in water entry is on record as “about 0.305 g/L”.
